According to publication PMC3907362, “Synthetic cationic antimicrobial peptides bind with their hydrophobic parts to drug site II of human serum albumin” (BMC Structural Biology, 2014):
Values joined by “and” are separate entries in the source; they are usually repeats but may differ in a detail not shown here. Equal entries are not always repeated. “Also recorded” adds a separate entry of the source. Where two headings read alike, the source gives them in different places. Residues, ends and D or L forms follow the SMILES beside them.

How the values were obtained:
[1] = test system: Escherichia coli ATCC 25922; format: cell-based
Method: (§1) The antibacterial activity of CAP 1 and CAP 5 were tested towards Staphylococcus aureus strain ATCC 25923, methicillin resistant Staphylococcus aureus strain ATCC 33591 and Escherichia coli strain ATCC 25922. The studies were performed by Toslab AS employing standard methods.

[2] = test system: Methicillin resistant Staphylococcus aureus ATCC 33591; format: cell-based
Method: as §1

[3] = test system: Staphylococcus aureus strain ATCC 25923; format: cell-based
Method: as §1

[4] = biological target: T1, human serum albumin (HSA) (Homo sapiens, UniProt P02768); test: Non-competitive isothermal titration calorimetry (ITC); conditions: for Kd: pH 7.4
Method: The experiments were either performed on a CSC 5300 Nano-Isothermal Titration Calorimeter III (Calorimetry Sciences Corporation, Utah, USA) with a cell volume of 1 mL, or a MicroCal™ iTC200 with a cell volume of 200 μL (MicroCal, LLC., Northampton, MA, USA). In all experiments lyophilized HSA ~99% essential fatty acid and globulin free (Sigma A3782), was weighed out to a nominal concentration and dissolved prior to the experiments in buffer 50 mM Tris, 10 mM CaCl2, pH 7.4 at 25°C. All ligands and peptides were dissolved in the same buffer. Control titrations of ligand into buffer were performed in duplicate to investigate if the heat of dilution would generate a significant signal, and if ligand-ligand interactions were present in the competitive experiments. The same settings as for the corresponding ligand-HSA experiments were applied in the control experiments.
A stirring rate of 150 rpm and an isotherm temperature of 25°C were applied. The response signal was measured at 1 s intervals, and a 200 s baseline was collected prior to the first injection for the purpose of assessing the baseline. Non-competitive experiments were carried out either in duplicates or triplicates. […] In total 40 consecutive injections were performed with a volume of 5 μL and a spacing of 300 s. […] Prior to the first injection, a baseline of 100 s was recorded to ensure instrument stability. The solution was stirred at 150 rpm, and the isothermal temperature set to 25°C. All competitive experiments were carried out in duplicate. […] The first injection was set to a dummy volume of 0.1 μL due to syringe leakage in the baseline equilibration step. An initial delay of 180 s was set to sample the baseline. The applied reference power was 6 μcal/s and an isothermal temperature of 25°C was used. […] For the selected peptides CAP 3 and CAP 5 competitive experiments with reversed order of the reference ligands and the CAP were performed as a control of titration order. The same ITC settings were applied for the non-competitive and competitive experiments with the MicroCal™ iTC200.
The ITC data was analyzed using the NanoAnalyse software from TA Instruments, v2.0.1 (Waters LLC, New Castle, DE, US) or Origin® 7.0. Independent model fit was used to generate the binding isotherm, and the first injection in all titration experiments was omitted in the binding isotherm analysis. The heat of dilution and unspecific binding signal corresponding to the last injection in each experiment was subtracted from all of the heat signals. The quality of the model fit was examined using the statistical modules of the software, the 95% confidence interval based on a 1000 trial calculations in the NanoAnalyze package, and the default non-weighted least square calculation in Origin® 7.0.

HSA = HSA (Homo sapiens, UniProt P02768); test: NMR WaterLOGSY; format: binding; conditions: HSA:ligand 1:20
From the text: All NMR experiments were acquired on an Agilent (Varian) inova spectrometer operating at 599.934 MHz for ^1H, equipped with a 2nd generation inverse triple resonance HCN cold probe. […] The difference spectra were produced by internal subtraction and all spectra were acquired with both sculpted solvent suppression during the PFG spin echo and 500 ms solvent presaturation during the relaxation delay. The protein signals were suppressed by a 10 ms T1ρ-spinlock. Finally, the spectra were multiplied with a 3 Hz exponential window function. For reference, double PFG spin echo 1D proton spectra were acquired using the same parameters, including the 10 ms T1ρ-spinlock for protein suppression. […] All samples were monitored for line broadening, quickened relaxation and NOE inversion to spot any direct interaction between ligands before the addition of HSA.

[5] = biological target: T1, human serum albumin (HSA); parameters: purchased Sigma A3782; conditions: HSA drug site II; ref [34],[35]; read-out: binding affinity (Kd), reported in other studies; cited from earlier work
selected bacteria = test: MIC towards selected bacteria, summary over strains; format: cell-based; conditions: all bacterial strains tested
Method: as §1

[6] = Kd, MicroCal iTC200 (values in parenthesis), 25°C
[7] = Kd, CSC 5300 Nano-Isothermal Titration Calorimeter III, 25°C
[8] = CSC 5300 Nano-Isothermal Titration Calorimeter III
[9] = MicroCal iTC200 (values in parenthesis)

Sequence of HSA (P02768 25-609): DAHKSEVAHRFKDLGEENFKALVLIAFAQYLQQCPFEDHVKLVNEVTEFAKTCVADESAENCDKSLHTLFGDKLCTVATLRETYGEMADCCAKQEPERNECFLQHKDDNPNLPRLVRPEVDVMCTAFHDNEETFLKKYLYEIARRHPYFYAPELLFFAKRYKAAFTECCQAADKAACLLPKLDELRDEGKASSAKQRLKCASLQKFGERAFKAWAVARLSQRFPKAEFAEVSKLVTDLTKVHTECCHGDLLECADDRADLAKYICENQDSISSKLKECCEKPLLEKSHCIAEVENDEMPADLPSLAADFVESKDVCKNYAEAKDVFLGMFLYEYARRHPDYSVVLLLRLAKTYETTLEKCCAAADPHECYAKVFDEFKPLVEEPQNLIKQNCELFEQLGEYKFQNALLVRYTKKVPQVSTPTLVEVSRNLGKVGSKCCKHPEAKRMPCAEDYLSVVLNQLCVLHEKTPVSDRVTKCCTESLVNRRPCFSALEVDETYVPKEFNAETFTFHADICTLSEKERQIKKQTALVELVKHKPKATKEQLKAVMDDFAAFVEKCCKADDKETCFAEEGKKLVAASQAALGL
T1 sequence (P02768 25-609): as above

Structure (SMILES) | MIC E. coli [1] | MIC MRSA [2] | MIC S. aureus [3] | Kd [4, 6] | Kd [4, 7] | WaterLOGSY binding to HSA (HSA) | other results
C[C@H](N)C(=O)N[C@@H](Cc1ccc(-c2ccccc2)cc1)C(=O)N[C@@H](C)C(N)=O [CAP 5] | >523 µM | >523 µM | >523 µM | 100 µM |  |  | 
CC(C)(C)c1cc(C(C)(C)C)c2[nH]c(C(C)(C)C)c(C[C@H](NC(=O)[C@@H](N)CCCNC(=N)N)C(=O)N[C@@H](CCCNC(=N)N)C(=O)NCc3ccccc3)c2c1 [CAP 4] |  |  |  |  | 25 ± 9 µM |  | 
N=C(N)NCCC[C@H](NC(=O)[C@H](Cc1ccc(-c2ccccc2)cc1)NC(=O)[C@@H](N)CCCNC(=N)N)C(=O)NCc1ccccc1 [CAP 3] (HELM PEPTIDE1{R.[O=C([C@H](Cc1ccc(-c2ccccc2)cc1)N[*:1])[*:2]].R.[c1ccc(CN[*:1])cc1]}$$$$V2.0) |  |  |  | 99 µM | 22 ± 9 µM |  | 
CN(C)c1cccc2c(S(=O)(=O)NCC(=O)O)cccc12 [Dgly, dansylglycine] |  |  |  | 40 µM | 11 ± 4 µM | clear WaterLOGSY effect | TΔS [4, 8]: 2.3 ± 0.5 kcal/mol; n (stoichiometric ratio) [4, 8]: 1.08 ± 0.05; ΔH [4, 8]: -4.5 ± 0.3 kcal/mol; TΔS [4, 9]: 0.5 ± 0.1 kcal/mol; n (stoichiometric ratio) [4, 9]: 1.16 ± 0.01; ΔG [4, 9]: -6.0 kcal/mol and -6.00 ± 0.02 kcal/mol; ΔH [4, 9]: -5.5 ± 0.1 kcal/mol; Kd [5]: 1.7 to 3.2 µM
N=C(N)NCCC[C@H](NC(=O)[C@H](Cc1c[nH]c2ccccc12)NC(=O)[C@@H](N)CCCNC(=N)N)C(=O)NCc1ccccc1 [CAP 2] (HELM PEPTIDE1{R.W.R.[c1ccc(CN[*:1])cc1]}$$$$V2.0) |  |  |  |  | 23 ± 8 µM |  | 
C[C@H](NC(=O)[C@@H](N)CCCNC(=N)N)C(=O)N[C@@H](CCCNC(=N)N)C(N)=O [CAP 1] (H-Arg-Ala-Arg-NH2) | >499 µM | >499 µM | >499 µM |  |  | does not interact directly with HSA and does not and not | Antimicrobial activity (MIC relative to threshold) (selected bacteria): inactive; Binding to HSA by ITC, in words ([4]; non-competitive ITC): did not bind to HSA; also recorded: does not bind to HSA; Kd [4]: -
